Read-outs that look alike come from different tables or passages of the source. Each block holds one molecule with its values, some of them ahead of it.
How the values were obtained:
[1] = Oral exposure in cynomolgus monkeys, compound alone or with excipient in capsules; plasma by LC-MS/MS; assay type: in vivo; conditions: for Oral bioavailability using calcium chelating excipients: cynomolgus monkeys, capsules, versus compound alone
From the text: The influence of different excipients on the bioavailability of Compound (Ia), Compound 2 and Compound 3 in cynomolgus monkeys was investigated. The excipients tested were sodium phytate, sodium citrate, sodium EDTA, cyclodextrin, sodium taurocholate, sodium polystyrene sulfate, sodium caprate, sodium phosphate, carbomer 971P and palmitoyl carnitine chloride. Generally, an appropriate quantity (as indicated in Table 1) of Compound (Ia), Compound 2 or Compound 3 and an excipient were mixed to homogeneity and transferred to capsules for dosing. In one example, Compound (Ia) (500 mg assay, 1.063 correction factor applied for to account for purity) and 2.75 g of sodium phytate (Sigma) were combined in a mortar and pestle. The mixture was ground to homogeneity then 530 mg of the white powder was transferred to enteric capsules (Size 0) prior to dosing.
[…] Compound (Ia), Compound 2 or Compound 3, either alone, or with excipient, in an enteric capsule was administered via an oral pet piller. Blood samples were collected from a peripheral vessel at designated time points, and centrifuged to obtain plasma.
(§1) Plasma samples obtained at each time point from the subjects were prepared by protein precipitation. An aliquot of 50 μL sample was added with 150 μL acetonitrile containing an internal standard ([[[(2R,3S,4R,5R)-5-[6-chloro-4-[[(1S)-2,2,2-trideuterio-1-(2-fluorophenyl)ethyl]amino]pyrazolo[3,4-b]pyridin-1-yl]-3,4-dihydroxyoxolan-2-yl]-dideuteriomethoxy]-hydroxyphosphoryl]methylphosphonic acid, 200 ng/mL in Acetonitrile). The mixture was vortexed for 15 min and then centrifuged at 4500 rpm for 15 min at 4° C. (Sorvall Legend XTR centrifuge, Thermo Scientific, Langenselbold, Germany). 80 μL of the resulting supernatant was transferred into a new plate and mixed with 160 μL water followed by LC-MS/MS analysis.
(§2) • API 4000 mass spectrometer (Applied Biosystems, Foster City, Calif.) • Shimadzu Nexera X^2 UHPLC System (Shimadzu Scientific Instruments, Canby, Oreg.) Column: SHISEIDO CAPCELL PAK INERT ADME S3 (2.00 mm×50 mm, Part No. 79001) Mobile Phase A: 8.6 mM Triethylamine, 100 mM HFIP (1,1,1,3,3,3-Hexafluoro-2-propanol) in Water Mobile Phase B: 8.6 mM Triethylamine, and 100 mM HFIP in [Acetonitrile:water (95:5, v/v) Needle wash (weak & strong): Acetone:MeCN:Water (80:20:20, v/v/v) Flow Rate: 0.50 mL/min HPLC Gradient:
• Ionization Mode: Electrospray (ESI) • Detection Mode: Negative MRM (Q1/Q3 transitions: m/z 579.0/157.0 for Compound (Ia) or Compound 3; m/z 584.0/157.0 for Internal Standard); (Q1/Q3 transitions m/z 562.2/157.0 for Compound 2; m/z 584.0/157.0 for Internal Standard)

[2] = Oral bioavailability in male Sprague-Dawley rats, compound alone or with excipient in water pH 8 by oral gavage; plasma by LC-MS/MS; assay type: in vivo; conditions: for Bioavailability (% F): oral gavage
Method: The influence of different excipients on the bioavailability of Compound 2 was investigated in Sprague Dawley rats. The excipients tested were Solutol HS 15, soy L-α-phosphatidylcholine, trisodium citrate, sodium caprate, disodium EDTA, and sodium phytate. Generally, 10-30 mg of Compound 2 and the indicated quantity (Table 5) of excipient was combined and dissolved in 5 mL water. The pH was adjusted to a pH of 8 using HCl or NaOH as needed.
Male Sprague-Dawley rats, weighing between 0.27 to 0.32 kg, were fasted overnight prior to dose administration through approximately 4 hours post-dose. Compound 2 was administered orally by orogastric gavage at 5 mL/kg. Blood samples were collected via femoral vein at designated time points, and centrifuged to obtain plasma.
as §1, with “([(2R,3S,4R,5R)-5-[2-chloro-6-(cyclopentylmethylamino)purin-9-yl]-3,4-dihydroxyoxolan-2-yl]methoxymethylphosphonic” for “([[[(2R,3S,4R,5R)-5-[6-chloro-4-[[(1S)-2,2,2-trideuterio-1-(2-fluorophenyl)ethyl]amino]pyrazolo[3,4-b]pyridin-1-yl]-3,4-dihydroxyoxolan-2-yl]-dideuteriomethoxy]-hydroxyphosphoryl]methylphosphonic”
as §2, with “(1,1 1,3,3,3-Hexafluoro-2-propanol)” for “(1,1,1,3,3,3-Hexafluoro-2-propanol)”, “Acetone: MeCN: Water” for “Acetone:MeCN:Water”, “mL/min” for “mL/min HPLC Gradient:”
• Ionization Mode: Electrospray (ESI) • Detection Mode: Negative MRM (Q1/Q3 transitions: m/z 562.2/157.0 for Compound 2; m/z 584.0/157.0 for Internal Standard)

[3] = male, cynomolgus monkey, plasma, po, 50 mg, enteric capsule, with 195 mg sodium citrate, 3 mg SDS, fasted
[4] = male, cynomolgus monkey, plasma, po, 50 mg, enteric capsule, with 275 mg sodium phytate (Sigma-Aldrich, ≥5 mol sodium/mol), fasted
[5] = male, cynomolgus monkey, plasma, po, 50 mg, oral, enteric capsule, dose 50 mg, with 195 mg sodium citrate, 3 mg SDS, fasted, read-out: Cmax
[6] = male, cynomolgus monkey, plasma, po, 50 mg, oral, enteric capsule, dose 50 mg, with 275 mg sodium phytate (Sigma-Aldrich, ≥5 mol sodium/mol), fasted, read-out: Cmax
[7] = male, cynomolgus monkey, plasma, po, 50 mg, Table 3: dose 50 mg, dosed with 195 mg trisodium citrate and 3 mg SDS, enteric capsules
[8] = male, cynomolgus monkey, plasma, po, 50 mg, Table 3: dose 50 mg, dosed with 195 mg trisodium citrate and 3 mg SDS, enteric capsules, read-out: Cmax
[9] = male, cynomolgus monkey, plasma, po, 50 mg, Table 4: dose 50 mg, dosed with 275 mg sodium phytate, enteric capsules
[10] = male, cynomolgus monkey, plasma, po, 50 mg, Table 4: dose 50 mg, dosed with 275 mg sodium phytate, enteric capsules, read-out: Cmax
[11] = oral, enteric capsule, dose 50 mg, with 275 mg sodium phytate (Sigma-Aldrich, ≥5 mol sodium/mol), fasted

SMILES: C[C@H](Nc1nc(Cl)nc2c1cnn2[C@@H]1O[C@H](COP(=O)(O)CP(=O)(O)O)[C@@H](O)[C@H]1O)c1ccccc1 [2 (Na)]
AUC(0-inf) ([1]; male, cynomolgus monkey, plasma, po, 10 mg, enteric capsule, neat, fasted): 918 ng·h/mL | AUC(0-inf) ([1]; male, cynomolgus monkey, plasma, po, 10 mg, enteric capsule, with 195 mg sodium citrate, 3 mg SDS, fasted): 4880 ng·h/mL | AUC(0-inf) ([1]; male, cynomolgus monkey, plasma, po, 10 mg, enteric capsule, with 195 mg sodium citrate, fasted): 8840 ng·h/mL | AUC(0-inf) ([1]; male, cynomolgus monkey, plasma, po, 10 mg, enteric capsule, with 275 mg sodium phytate (Sigma-Aldrich), fasted): 6010 ng·h/mL | Cmax ([1]; male, cynomolgus monkey, plasma, po, 10 mg, oral, enteric capsule, dose 10 mg, neat, fasted, read-out: Cmax): 161 ng/mL | Cmax ([1]; male, cynomolgus monkey, plasma, po, 10 mg, oral, enteric capsule, dose 10 mg, with 195 mg sodium citrate, 3 mg SDS, fasted, read-out: Cmax): 997 ng/mL | Cmax ([1]; male, cynomolgus monkey, plasma, po, 10 mg, oral, enteric capsule, dose 10 mg, with 195 mg sodium citrate, fasted, read-out: Cmax): 791 ng/mL | Cmax ([1]; male, cynomolgus monkey, plasma, po, 10 mg, oral, enteric capsule, dose 10 mg, with 275 mg sodium phytate (Sigma-Aldrich), fasted, read-out: Cmax): 824 ng/mL | AUC(0-inf) [1, 3]: 67100 ng·h/mL | AUC(0-inf) [1, 4]: 105000 ng·h/mL | Cmax [1, 5]: 2530 ng/mL | Cmax [1, 6]: 2320 ng/mL | Exposure Enhancement ([1]; oral, enteric capsule, dose 10 mg, with 195 mg sodium citrate, 3 mg SDS, relative to 10 mg dose of 2(Na) without absorption enhancer): 5.3-fold^e | Exposure Enhancement ([1]; oral, enteric capsule, dose 10 mg, with 195 mg sodium citrate, relative to 10 mg dose of 2(Na) without absorption enhancer): 9.6-fold^e | Exposure Enhancement ([1]; oral, enteric capsule, dose 10 mg, with 275 mg sodium phytate (Sigma-Aldrich), relative to 10 mg dose of 2(Na) without absorption enhancer): 6.6-fold^e

SMILES: C[C@H](Nc1nc(Cl)nc2c1cnn2[C@@H]1O[C@H](COP(=O)(O)CP(=O)(O)O)[C@@H](O)[C@H]1O)c1ccccc1 [2 (Neutral)]
AUC(0-inf) ([1]; male, cynomolgus monkey, plasma, po, 50 mg, enteric capsule, with 195 mg sodium citrate, 6 mg sodium dodecyl sulfate (SDS), fasted): 129000 ng·h/mL | AUC(0-inf) ([1]; male, cynomolgus monkey, plasma, po, 50 mg, gelatin capsule, with 195 mg sodium citrate, 6 mg SDS, fasted): 151000 ng·h/mL | Cmax ([1]; male, cynomolgus monkey, plasma, po, 50 mg, oral, enteric capsule, dose 50 mg, with 195 mg sodium citrate, 6 mg sodium dodecyl sulfate (SDS), fasted, read-out: Cmax): 3140 ng/mL | Cmax ([1]; male, cynomolgus monkey, plasma, po, 50 mg, oral, gelatin capsule, dose 50 mg, with 195 mg sodium citrate, 6 mg SDS, fasted, read-out: Cmax): 3180 ng/mL

SMILES: C[C@H](Nc1cc(Cl)nc2c1cnn2[C@@H]1O[C@H](COP(=O)(O)CP(=O)(O)O)[C@@H](O)[C@H]1O)c1ccc(F)cc1 [3 ( 3Na)]
AUC(0-inf) [1, 3]: 38700 ng·h/mL | AUC(0-inf) [1, 4]: 149000 ng·h/mL | Cmax [1, 5]: 1320 ng/mL | Cmax [1, 6]: 3550 ng/mL

The next lines start with the values.

Oral bioavailability using calcium chelating excipients ([2]; SD rats, 10-30 mg/kg + excipient in water at pH 8 via oral gavage, 5 mL/kg): Improved | Bioavailability (% F) ([2]; 10 mg/kg, excipient: Sodium phytate (Sigma) 165 mg/SDS 2 mg): 2.0 % F | Bioavailability (% F) ([2]; 10 mg/kg, excipient: Sodium phytate (Sigma, ≥5 mol sodium/mol) 165 mg): 2.3 % F | Bioavailability (% F) ([2]; 10 mg/kg, excipient: Trisodium citrate 64.5 mg/sodium caprate 49 mg): 0.23 % F | Bioavailability (% F) ([2]; 30 mg/kg, excipient (mg/kg): Solutol HS 15, 1,500): 0.015 % F | Bioavailability (% F) ([2]; 30 mg/kg, excipient: Disodium EDTA 5 mg): 0.60 % F | Bioavailability (% F) ([2]; 30 mg/kg, excipient: Disodium EDTA 20 mg): 2.8 % F | Bioavailability (% F) ([2]; 30 mg/kg, excipient: None): 0.03 % F | Bioavailability (% F) ([2]; 30 mg/kg, excipient: Soy L-α-phosphatidylcholine 150 mg): 0.07 % F | Bioavailability (% F) ([2]; 30 mg/kg, excipient: Trisodium citrate 20 mg): 0.10 % F | Bioavailability (% F) ([2]; 30 mg/kg, excipient: Trisodium citrate 64.5 mg): 0.60 % F | Oral bioavailability using calcium chelating excipients [1]: Improved | AUC(0-inf) [1, 7]: 67100 ng·h/mL | Cmax [1, 8]: 2530 ng/mL | AUC(0-inf) [1, 9]: 105000 ng·h/mL | Cmax [1, 10]: 2320 ng/mL
SMILES: C[C@H](Nc1nc(Cl)nc2c1cnn2[C@@H]1O[C@H](COP(=O)(O)CP(=O)(O)O)[C@@H](O)[C@H]1O)c1ccccc1 [Compound 2]

Oral bioavailability using calcium chelating excipients [1]: Improved | AUC(0-inf) [1, 7]: 38700 ng·h/mL | Cmax [1, 8]: 1320 ng/mL | AUC(0-inf) [1, 9]: 149000 ng·h/mL | Cmax [1, 10]: 3550 ng/mL
SMILES: C[C@H](Nc1cc(Cl)nc2c1cnn2[C@@H]1O[C@H](COP(=O)(O)CP(=O)(O)O)[C@@H](O)[C@H]1O)c1ccc(F)cc1 [Compound 3]

Oral bioavailability using calcium chelating excipients [1]: Improved | AUC(0-inf) [1, 7]: 22200 ng·h/mL | Cmax [1, 8]: 922 ng/mL | AUC(0-inf) [1, 9]: 122000 ng·h/mL | Cmax [1, 10]: 3680 ng/mL
SMILES: C[C@H](Nc1cc(Cl)nc2c1cnn2[C@@H]1O[C@H](COP(=O)(O)CP(=O)(O)O)[C@@H](O)[C@H]1O)c1ccccc1F [Compound (Ia), (((((2R,3S,4R,5R)-5-(6-chloro-4-(((S)-1-(2-fluorophenyl)ethyl)amino)-1H-pyrazolo[3,4-b]pyridin-1-yl)-3,4-dihydroxytetrahydrofuran-2-yl)methoxy)(hydroxy)phosphoryl)methyl)phosphonic acid]

Exposure Enhancement ([1]; oral, enteric capsule, dose 50 mg, with 275 mg sodium phytate (Sigma-Aldrich), relative to 50 mg Ia ( 3Na) without absorption enhancer): 7.6-fold^b | AUC0-∞ [1, 11]: 102,000 h*ng/mL | Cmax [1, 11]: 2,790 ng/mL
SMILES: C[C@H](Nc1cc(Cl)nc2c1cnn2[C@@H]1O[C@H](COP(=O)(O)CP(=O)(O)O)[C@@H](O)[C@H]1O)c1ccccc1F [Ia (Neutral), (((((2R,3S,4R,5R)-5-(6-chloro-4-(((S)-1-(2-fluorophenyl)ethyl)amino)-1H-pyrazolo[3,4-b]pyridin-1-yl)-3,4-dihydroxytetrahydrofuran-2-yl)methoxy)(hydroxy)phosphoryl)methyl)phosphonic acid]
